Experimental data from patent publication US8759338B2, “Heterocyclic kinase inhibitors” (Novartis AG, priority 2008, dated 2014).

Tests used:
PIM2 = PIM2 (Homo sapiens (Human), UniProt Q9P1W9); assay: Pim2 ATP depletion assay; type: biochemical; settings: 4 μM ATP, 10 μM BAD peptide
Description: The activity of PIM2 is measured using a luciferase-luciferin based ATP detection reagent to quantify ATP depletion resulting from kinase-catalyzed phosphoryl transfer to a peptide substrate. Compounds to be tested are dissolved in 100% DMSO and directly distributed into white 384-well plates at 0.5 μl per well. To start the reaction, 10 μl of 10 nM Pim2 kinase and 20 μM BAD peptide (RSRHSSYPAGT-OH) in assay buffer (50 mM HEPES pH 7.5, 5 mM MgCl2, 1 mM DTT, 0.05% BSA) is added into each well. After 15 minutes, 10 μl of 8 μM ATP in assay buffer is added. Final assay concentrations are 5 nM PIM2, 4 μM ATP, 10 μM BAD peptide and 2.5% DMSO. The reaction is performed until approximately 50% of the ATP is depleted, then stopped with the addition of 20 μl KinaseGlo Plus (Promega Corporation) solution. The stopped reaction is incubated for 10 minutes and the remaining ATP detected via luminescence on the Victor2 (Perkin Elmer).

PIM1 = PIM1 (Homo sapiens (Human), UniProt P11309); assay: Pim1 ATP depletion assay; type: biochemical; settings: 20 μM ATP, 40 μM BAD peptide
Description: The activity of PIM1 is measured using a luciferase-luciferin based ATP detection reagent to quantify ATP depletion resulting from kinase-catalyzed phosphoryl transfer to a peptide substrate. Compounds to be tested are dissolved in 100% DMSO and directly distributed into white 384-well plates at 0.5 μA per well. To start the reaction, 10 μl of 5 nM Pim1 kinase and 80 μM BAD peptide (RSRHSSYPAGT-OH) in assay buffer (50 mM HEPES pH 7.5, 5 mM MgCl2, 1 mM DTT, 0.05% BSA) is added into each well. After 15 minutes, 10 μl of 40 μM ATP in assay buffer is added. Final assay concentrations are 2.5 nM PIM1, 20 μM ATP, 40 μM BAD peptide and 2.5% DMSO. The reaction is performed until approximately 50% of the ATP is depleted, then stopped with the addition of 20 μl KinaseGlo Plus (Promega Corporation) solution. The stopped reaction is incubated for 10 minutes and the remaining ATP detected via luminescence on the Victor2 (Perkin Elmer). […] IC50, the half maximal inhibitory concentration, represents the concentration of a test compound that is required for 50% inhibition of its target in vitro.

PIM3 = PIM3 (Homo sapiens (Human), UniProt Q86V86); assay: Pim3 ATP depletion assay; type: biochemical; settings: 40 μM ATP, 100 μM BAD peptide
Description: The activity of PIM3 is measured using a luciferase-luciferin based ATP detection reagent to quantify ATP depletion resulting from kinase-catalyzed phosphoryl transfer to a peptide substrate. Compounds to be tested are dissolved in 100% DMSO and directly distributed into white 384-well plates at 0.5 μA per well. To start the reaction, 10 μl of 10 nM Pim3 kinase and 200 μM BAD peptide (RSRHSSYPAGT-OH) in assay buffer (50 mM HEPES pH 7.5, 5 mM MgCl2, 1 mM DTT, 0.05% BSA) is added into each well. After 15 minutes, 10 μl of 80 μM ATP in assay buffer is added. Final assay concentrations are 5 nM PIM1, 40 μM ATP, 100 μM BAD peptide and 2.5% DMSO. The reaction is performed until approximately 50% of the ATP is depleted, then stopped by the addition of 20 μl KinaseGlo Plus (Promega Corporation) solution. The stopped reaction is incubated for 10 minutes and the remaining ATP detected via luminescence on the Victor2 (Perkin Elmer).

KMS11 cells = assay: Cell proliferation assay; type: cell-based; settings: KMS-11, 72 h; KMS11 human myeloma cell line, 3 days, CellTiter-Glo
Description: KMS11 (human myeloma cell line), were cultured in IMDM supplemented with 10% FBS, sodium pyruvate and antibiotics. Cells were plated in the same medium at a density of 2000 cells per well into 96 well tissue culture plates, with outside wells vacant, on the day of assay. MM1.s (human myeloma cell line), were cultured in RPMI1640 supplemented with 10% FBS, sodium pyruvate and antibiotics. Cells were plated in the same medium at a density of 5000 cells per well into 96 well tissue culture plates, with outside wells vacant, on the day of assay.
Test compounds supplied in DMSO were diluted into DMSO at 500 times the desired final concentrations before dilution into culture media to 2 times final concentrations. Equal volumes of 2× compounds were added to the cells in 96 well plates and incubated at 37° C. for 3 days.
After 3 days plates were equilibrated to room temperature and equal volume of CellTiter-Glow Reagent (Promega) was added to the culture wells. The plates were agitated briefly and luminescent signal was measured with luminometer. The percent inhibition of the signal seen in cells treated with DMSO alone vs. cells treated with control compound was calculated and used to determine EC50 values (i.e., the concentration of a test compound that is required to obtain 50% of the maximum effect in the cells) for tested compounds, as shown in Example 24.

Sequence of PIM2 (Q9P1W9 whole entry, species assumed): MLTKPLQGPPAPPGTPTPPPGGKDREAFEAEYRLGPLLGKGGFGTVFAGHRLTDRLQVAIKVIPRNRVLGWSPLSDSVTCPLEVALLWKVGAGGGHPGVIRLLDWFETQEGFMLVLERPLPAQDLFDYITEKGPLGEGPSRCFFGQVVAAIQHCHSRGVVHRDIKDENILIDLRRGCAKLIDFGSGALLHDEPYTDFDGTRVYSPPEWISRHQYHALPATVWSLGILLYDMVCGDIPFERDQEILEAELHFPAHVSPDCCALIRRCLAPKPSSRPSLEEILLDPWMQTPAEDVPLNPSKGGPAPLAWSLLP
Sequence of PIM1 (P11309 whole entry, species assumed): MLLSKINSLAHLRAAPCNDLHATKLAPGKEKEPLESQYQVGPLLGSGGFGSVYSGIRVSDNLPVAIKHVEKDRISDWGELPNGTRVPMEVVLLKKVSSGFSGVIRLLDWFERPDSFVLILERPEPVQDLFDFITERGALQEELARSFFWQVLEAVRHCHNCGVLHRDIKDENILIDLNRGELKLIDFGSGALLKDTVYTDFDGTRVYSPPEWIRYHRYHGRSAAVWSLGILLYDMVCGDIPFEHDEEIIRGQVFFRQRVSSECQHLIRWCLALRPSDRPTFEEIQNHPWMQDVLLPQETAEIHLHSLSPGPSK

SMILES | IC50 (PIM2) [µM] | IC50 (PIM1) [µM] | IC50 (PIM3) [µM] | EC50 (KMS11 cells) [µM]
N[C@@H]1CCCN(c2ccncc2Nc2cccc3cnc(-c4c(F)cccc4F)nc23)C1 [Example 7, (R)-N-(4-(3-aminopiperidin-1-yl)pyridin-3-yl)-2-(2,6-difluorophenyl)quinazolin-8-amine] | 3.6 | 2.1 | 0.212 | –
NC1CC(N)CN(c2ccncc2Nc2cccc3cnc(-c4c(F)cccc4F)nc23)C1 (centres unmarked) [Example 8, 1-(3-(2-(2,6-difluorophenyl)quinazolin-8-ylamino)pyridin-4-yl)piperidine-3,5-diamine] | 2.5 | 2.3 | 0.246 | –
N[C@@H]1CN(c2ccncc2Nc2cccc3cnc(-c4c(F)cccc4F)nc23)CC[C@H]1O [Example 3, (3R,4R)-3-amino-1-(3-(2-(2,6-difluorophenyl)-quinazolin-8-ylamino)-pyridin-4-yl)piperidin-4-ol] | 0.23 | 0.184 | 0.067 | –
N[C@@H]1CN(c2ccncc2Nc2cccc3cnc(-c4c(F)cccc4F)nc23)CC[C@@H]1O [Example 2, (3R,4S)-3-amino-1-(3-(2-(2,6-difluorophenyl)-quinazolin-8-ylamino)-pyridin-4-yl)piperidin-4-ol] | 0.09 | 0.039 | 0.018 | –
N[C@@H]1CN(c2ccncc2Nc2cccc3cnc(-c4c(F)cccc4F)nc23)CC[C@H]1F [Example 9, N-(4-((3R,4R)-3-amino-4-fluoropiperidin-1-yl)pyridin-3-yl)-2-(2,6-difluorophenyl)quinazolin-8-amine] | 0.498 | 0.465 | 0.17 | –
CCO[C@@H]1C[C@H](N)CN(c2ccncc2Nc2cccc3cnc(-c4c(F)cccc4F)nc23)C1 [Example 6, N-(4-((3S,5R)-3-amino-5-ethoxypiperidin-1-yl)pyridin-3-yl)-2-(2,6-difluorophenyl)quinazolin-8-amine] | 0.46 | 1.7 | 2.1 | –
NC1C=C(c2ccncc2Nc2cccc3cnc(-c4c(F)cccc4F)nc23)CCC1 (centres unmarked) [Example 1, N-(4-(3-aminocyclohex-1-enyl)pyridin-3-yl)-2-(2,6-difluorophenyl)quinazolin-8-amine] | 0.392 | 0.152 | 0.078 | –

Second part, led by results:

IC50 (PIM2) [µM] | IC50 (PIM1) [µM] | IC50 (PIM3) [µM] | SMILES | EC50 (KMS11 cells) [µM]
> 25 | 5.4 | 3.9 | N[C@H]1CCCN(c2ncncc2Nc2cccc3cnc(-c4c(F)cccc4F)nc23)C1 [Example 12, (S)-N-(4-(3-aminopiperidin-1-yl)pyrimidin-5-yl)-2-(2,6-difluorophenyl)quinazolin-8-amine] | –
2 | 0.056 | 0.095 | N[C@H]1CCCN(c2ccncc2Nc2cccc3cnc(-c4cccc(-c5nccs5)c4)nc23)C1 [Example 19, (S)-N-(4-(3-aminopiperidin-1-yl)pyridin-3-yl)-2-(3-(thiazol-2-yl)phenyl)quinazolin-8-amine] | –
0.852 | 0.882 | 0.18 | C[C@H]1C[C@@H](N)CN(c2ccncc2Nc2cccc3cnc(-c4c(F)cccc4F)nc23)C1 [Example 14, N-(4-((3R,5S)-3-amino-5-methylpiperidin-1-yl)pyridin-3-yl)-2-(2,6-difluorophenyl)quinazolin-8-amine] | –
> 25 | 2.9 | 0.468 | NC1CCCCN(c2ccncc2Nc2cccc3cnc(-c4c(F)cccc4F)nc23)C1 (centres unmarked) [Example 11, N-(4-(3-aminoazepan-1-yl)pyridin-3-yl)-2-(2,6-difluorophenyl)quinazolin-8-amine] | –
> 25 | 4.7 | 0.502 | N[C@H]1CN(c2ccncc2Nc2cccc3cnc(-c4c(F)cccc4F)nc23)CC[C@@H]1F [Example 10, N-(4-((3S,4S)-3-amino-4-fluoropiperidin-1-yl)pyridin-3-yl)-2-(2,6-difluorophenyl)quinazolin-8-amine] | –
0.031 | 0.021 | 0.016 | N[C@H]1CCCN(c2ccncc2Nc2cccc3cnc(-c4c(F)cccc4F)nc23)C1 [Example 17, (S)-N-(4-(3-aminopiperidin-1-yl)pyridin-3-yl)-2-(2,6-difluorophenyl)quinazolin-8-amine] | –
0.131 | 0.029 | 0.018 | N[C@H]1CCCN(c2ccncc2Nc2cccc3cnc(-c4ccccc4F)nc23)C1 [Example 18, (S)-N-(4-(3-aminopiperidin-1-yl)pyridin-3-yl)-2-(2-fluorophenyl)quinazolin-8-amine] | –
0.009 | 0.018 | 0.019 | C[C@@H]1C[C@H](N)CN(c2ccncc2Nc2cccc3cnc(-c4c(F)cccc4F)nc23)C1 [Example 15, N-(4-((3S,5R)-3-amino-5-methylpiperidin-1-yl)pyridin-3-yl)-2-(2,6-difluorophenyl)quinazolin-8-amine] | 2.6
1.9 | 0.411 | 0.149 | N[C@H]1CCCN(c2ccncc2Nc2cccc3cnc(-c4nccs4)nc23)C1 [Example 16, (S)-N-(4-(3-aminopiperidin-1-yl)pyridin-3-yl)-2-(thiazol-2-yl)quinazolin-8-amine] | –
0.02 | 0.053 | 0.049 | N[C@H]1C[C@@H](CF)CN(c2ccncc2Nc2cccc3cnc(-c4c(F)cccc4F)nc23)C1 [Example 13, N-(4-((3S,5R)-3-amino-5-(fluoromethyl)piperidin-1-yl)pyridin-3-yl)-2-(2,6-difluorophenyl)quinazolin-8-amine] | 7.3
